Source: patent US10111847B2, “Compounds and methods for modulating vascular injury” (The Regents of the University of California, priority 2012, dated 2018)

Tested on: human sv-VSMCs
Test: PDGF-BB induced transwell migration of sv-VSMCs (Maresin-1)
Type: cell-based
Conditions: 1-100 nM; PDGF-BB 50 ng/ml; 15 hr
Experimental: MaR-1. VSMCs were serum starved for 1-2 days, then trypsinized and seeded in 8-μm-pore transwell inserts (Corning Glass Works, Corning, N.Y.) at a concentration of 30,000 cells per well. Cells were allowed to attach for 2 hr, then pretreated with Maresin-1 (1-100 nM) or vehicle (0.1% ethanol) control for 30 min before the addition of PDGF-BB (50 ng/ml; Sigma-Aldrich, St. Louis, Mo., USA) to the lower wells. 7S-Maresin-1 was added to both upper and lower wells for the full duration of chemotaxis experiment (15 hr). The membranes were fixed with methanol and cut out, mounted with DAPI, and migrated cells were counted under fluorescence microscope. Ten images per well were taken randomly under a 10× magnification and number of cells were counted in all the images to calculate mean for a given well.
VSMCs were pre-treated with vehicle or 7S-Maresin-1 for 30 min in a transwell insert before adding […] (50 ng/ml) to the outer chamber. Migrated VSMCs were fixed with methanol, stained with DAPI and counted under a fluorescent microscope.
FIGS. 20A-20D. Representative image of nine independent experiments. (A) Vehicle Control. (B) PDGF-BB, 50 ng/ml. (C) 7S-Maresin-1, 1 nm+PDGF-BB, 50 ng/ml. (D) 7S-Maresin-1, 100 nm+PDGF-BB, 50 ng/ml. (E) Graphical summary of nine independent experiments. P≤0.01, One-way ANOVA with Dunnett's post hoc test. *P<0.05 compared to […] (50 ng/ml). […]

SMILES: CC/C=C\C/C=C\C[C@H](O)\C=C/C=C/C=C/[C@@H](O)C/C=C\CCC(=O)O [7S-Maresin-1, 7S,14R-dihydroxydocosa-4Z,8E,10Z,12Z,16Z,19Z-hexaenoic acid]
- PDGF-BB induced migration in human sv-VSMCs: Dose-Dependently Attenuates
